pEC50, pIC50: −log10 of the molar value.

In data set [1] the test system is Human immunodeficiency virus 1. Briefly: Antiviral activity against HIV-1 NL4-3 infected in human MT-4 cells. The class given is functional, organism-based. Conditions: Human immunodeficiency virus 1, NL4-3, MT4.
The next data set concerns A2780. The data set is described as follows: Antitumor activity against human A2780 cells by SRB assay. The class given is functional, cell-based. A general note: Sulforhodamine B stains cellular protein and so reports cell mass.
In another data set the test system is 8505C. Briefly: Antitumor activity against human 8505C cells by SRB assay. The class given is functional, cell-based.
The subject of the next data set is 518A2. The data set is described as follows: Antitumor activity against human 518A2 cells by SRB assay. The class given is functional, cell-based.
A further data set has as its system MCF7. Briefly: Antitumor activity against human MCF7 cells by SRB assay. It counts as functional, cell-based.
A further data set deals with A549. Briefly: Antitumor activity against human A549 cells by SRB assay. The class given is functional, cell-based.
Another data set has as its system Ehrlich. Briefly: Cytotoxicity against mouse Ehrlich carcinoma cells assessed as reduction in cell viability after 48 hrs by MTT assay. The class given is functional, cell-based. On the technique in general: Formazan colour is commonly taken as a measure of viable cells.
In the next data set the test system is P815. Briefly: Cytotoxicity against mouse P815 cells assessed as reduction in cell viability after 48 hrs by MTT assay. To be noted: P815, 48 h. The class given is functional, cell-based.
A further data set concerns CCRF-CEM. Briefly: Cytotoxicity against human CCRF-CEM cells assessed as reduction in cell viability. The class given is functional, cell-based.
For the next data set, the system named is PA-1. The data set is described as follows: Cytotoxicity against human PA1 cells assessed as reduction in cell viability after 72 hrs by MTT assay. To be noted: PA-1, 72 h. The class given is functional, cell-based.
The test system of another data set is HT-29. Briefly: Cytotoxicity against human HT-29 cells assessed as reduction in cell viability after 72 hrs by MTT assay. It counts as functional, cell-based. To be noted: HT-29, 72 h.
Another data set concerns L132. The data set is described as follows: Cytotoxicity against human L-132 cells assessed as reduction in cell viability after 72 hrs by MTT assay. The class given is functional, cell-based. Conditions: L132, 72 h.
The next data set deals with DU-145. Briefly: Cytotoxicity against human DU145 cells assessed as reduction in cell viability after 72 hrs by MTT assay. It counts as functional, cell-based. Conditions: DU-145, 72 h.
The next data set has as its system Leishmania infantum. Briefly: Antileishmanial activity against Leishmania infantum promastigotes after 2 to 24 hrs by Giemsa staining-based microscopic analysis. The class given is functional, organism-based.
A further data set deals with Plasmodium falciparum. Briefly: Antimalarial activity against chloroquine-sensitive Plasmodium falciparum 3D7 by flow cytometry analysis. It counts as functional, organism-based. A general note: In flow cytometry, cells or beads pass a laser one at a time.
The next data set has as its system HEK-293T. Briefly: Cytotoxicity against HEK293T cells assessed as reduction in cell viability. It counts as cell-based. To be noted: Homo sapiens.
Data set [2] in a line: Selectivity index, ratio of IC50 for HEK293T cells tobIC50 for chloroquine-sensitive Plasmodium falciparum 3D7. Conditions: human, read-out: Ratio IC50. It counts as toxicity.
Data set [3] concerns Human immunodeficiency virus 1. The data set is described as follows: Antiviral activity against HIV-1. It counts as functional, organism-based.
Data set [4] deals with Human immunodeficiency virus 1. Briefly: Antiviral activity against HIV-1 3B. The class given is functional, organism-based. Conditions: Human immunodeficiency virus 1, 3B.

`C=C(C)[C@@H]1CC[C@]2(C(=O)OCc3cn([C@H]4C[C@H](n5cc(C)c(=O)[nH]c5=O)O[C@@H]4CO)nn3)CC[C@]3(C)[C@H](CC[C@@H]4[C@@]5(C)CC[C@H](OC(=O)CC(C)(C)C(=O)O)C(C)(C)[C@@H]5CC[C@]43C)[C@@H]12` showed a negative logarithm of the EC50 (pEC50) in data set [1] of 7.00.
For the molecule `C=C(C)[C@@H]1CC[C@]2(C(=O)NCCNCCN)CC[C@]3(C)[C@H](CC[C@@H]4[C@@]5(C)CC[C@H](OC(C)=O)C(C)(C)[C@@H]5CC[C@]43C)[C@@H]12`, the negative logarithm of the IC50 (pIC50) with A2780, in the data set on 8505C, in the data set with 518A2, in the data set on MCF7 and in the data set on A549 was 5.65 to 5.85 in each case.
In the case of `CC(=O)O[C@H]1C(CCC[P+](c2ccccc2)(c2ccccc2)c2ccccc2)C[C@]2(C)[C@H]3CC[C@@H]4[C@H]5[C@H](C(C)C)CC[C@]5(C(=O)O)CC[C@@]4(C)[C@]3(C)CC[C@H]2C1(C)C` (some centres undefined), the pIC50 in the data set on Ehrlich and in the data set with P815 was 5.33 to 5.96 each time.
As to `C=C(/C=N/N=C/c1ccccn1)[C@@H]1CC[C@]2(C(=O)O)CC[C@]3(C)[C@H](CC[C@@H]4[C@@]5(C)CC[C@H](O)C(C)(C)[C@@H]5CC[C@]43C)[C@@H]12`, in the data set on CCRF-CEM, the negative-log IC50 (pIC50) is 5.32 to 5.42.
Turning to `C=C(C)[C@@H]1CC[C@]2(C(=O)O)CC[C@]3(C)[C@H](CC[C@@H]4[C@@]5(C)CC/C(=N\Nc6ccccc6)C(C)(C)[C@@H]5CC[C@]43C)[C@@H]12`, the pIC50 in the data set on PA-1, in the data set on HT-29, in the data set with L132 and with DU-145 was 5.40 to 6.00 in each case.
Turning to `C=C(C)[C@@H]1CC[C@]2(C(=O)NCCN)CC[C@]3(C)[C@H](CC[C@@H]4[C@@]5(C)CC[C@H](O)C(C)(C)[C@@H]5CC[C@]43C)[C@@H]12`, the pIC50 with CCRF-CEM was 6.15.
Regarding `C=C(C)[C@@H]1CC[C@]2(C(=O)O)CC[C@]3(C)[C@H](CC[C@@H]4[C@@]5(C)CC/C(=N\NC(C)=O)C(C)(C)[C@@H]5CC[C@]43C)[C@@H]12`, the pIC50 in the data set with PA-1, with HT-29, in the data set with L132 and in the data set on DU-145 was 5.40 to 6.00 each time.
`C=C(CC=O)[C@@H]1CC[C@]2(COC(=O)n3ccnc3)CC[C@]3(C)[C@H](CC[C@@H]4[C@@]5(C)CC[C@H](O)C(C)(C)[C@@H]5CC[C@]43C)[C@@H]12` gave a pIC50 with Leishmania infantum of 4.29.
Take `C=C(/C=N/N=C/c1ccccc1[N+](=O)[O-])[C@@H]1CC[C@]2(C(=O)O)CC[C@]3(C)[C@H](CC[C@@H]4[C@@]5(C)CC[C@H](O)C(C)(C)[C@@H]5CC[C@]43C)[C@@H]12`: in the data set on CCRF-CEM, the negative logarithm of the IC50 (pIC50) is 5.32 to 5.42.
In the case of `C=C(C)[C@@H]1CC[C@]2(C(=O)N3CCNCC3)CC[C@]3(C)[C@H](CC[C@@H]4[C@@]5(C)CC[C@H](O)C(C)(C)[C@@H]5CC[C@]43C)[C@@H]12`, the negative logarithm of the IC50 (pIC50) in the data set on CCRF-CEM was 6.10.
For the molecule `C=C(C)[C@@H]1CC[C@]2(C(=O)O)CC[C@]3(C)[C@H](CC[C@@H]4[C@@]5(C)CC/C(=N\Nc6ccc(F)cc6)C(C)(C)[C@@H]5CC[C@]43C)[C@@H]12`, the pIC50 in the data set with PA-1, in the data set on HT-29, in the data set on L132 and in the data set on DU-145 was 5.40 to 6.00 in each case.
In the case of `CC(=O)O[C@H]1C(CCC[P+](c2ccccc2)(c2ccccc2)c2ccccc2)C[C@]2(C)[C@H]3CC[C@@H]4[C@H]5[C@H](C(C)C)CC[C@]5(C(=O)OCc5ccccc5)CC[C@@]4(C)[C@]3(C)CC[C@H]2C1(C)C` (some centres undefined), the negative-log IC50 (pIC50) in the data set with Ehrlich and in the data set with P815 was 5.33 to 5.96 throughout.
On to `COC(=O)[C@]12CC[C@@H](C(C)C)[C@@H]1[C@H]1CC[C@@H]3[C@@]4(C)CC(CCC[P+](c5ccccc5)(c5ccccc5)c5ccccc5)[C@@H](OC(C)=O)C(C)(C)[C@@H]4CC[C@@]3(C)[C@]1(C)CC2` (some centres undefined), for which the pIC50 with Ehrlich and with P815 was 5.33 to 5.96 throughout.
In the case of `C=C(/C=N/N=C/c1ccccc1O)[C@@H]1CC[C@]2(C(=O)O)CC[C@]3(C)[C@H](CC[C@@H]4[C@@]5(C)CC[C@H](O)C(C)(C)[C@@H]5CC[C@]43C)[C@@H]12`, in the data set on CCRF-CEM, the negative logarithm of the IC50 (pIC50) is 5.32 to 5.42.
On to `C=C(C)[C@@H]1CC[C@]2(C(=O)NCCCN3CCN(CCCN)CC3)CC[C@]3(C)[C@H](CC[C@@H]4[C@@]5(C)CC[C@H](OC(C)=O)C(C)(C)[C@@H]5CC[C@]43C)[C@@H]12`, for which the negative logarithm of the IC50 (pIC50) in the data set with Plasmodium falciparum is 6.66; in the data set with HEK-293T, 5.40. For the same molecule, the selectivity ratio in [2] came out at 23.
For the molecule `C=C(C)[C@@H]1CC[C@]2(C(=O)OCCCCCCCC(=O)N[C@@H](CC(C)C)[C@@H](O)CC(=O)O)CC[C@]3(C)[C@H](CC[C@@H]4[C@@]5(C)CC[C@H](O)C(C)(C)[C@@H]5CC[C@]43C)[C@@H]12`, in data set [3], the pIC50 was 7.30.
In the case of `COC(=O)[C@]12CC[C@@H](C(C)C)[C@@H]1[C@H]1CC[C@@H]3[C@@]4(C)CC(CCC[P+](c5ccccc5)(c5ccccc5)c5ccccc5)[C@H](OC(C)=O)C(C)(C)[C@@H]4CC[C@@]3(C)[C@]1(C)CC2` (some centres undefined), the negative-log IC50 (pIC50) with Ehrlich and in the data set on P815 was 5.33 to 5.96 throughout.
Turning to `C=C(C)[C@@H]1CC[C@]2(C(=O)O)CC[C@]3(C)[C@H](CC[C@@H]4[C@@]5(C)CC/C(=N\Nc6c(Cl)cc(Cl)cc6Cl)C(C)(C)[C@@H]5CC[C@]43C)[C@@H]12`, the pIC50 in the data set with PA-1, in the data set with HT-29, in the data set with L132 and in the data set with DU-145 was 5.40 to 6.00 in each case.
In [3], `C=C(CO)[C@@H]1CC[C@]2(C(=O)OCCCCCCCCCCC(=O)O)CC[C@]3(C)[C@H](CC[C@@H]4[C@@]5(C)CC[C@H](O)C(C)(C)[C@@H]5CC[C@]43C)[C@@H]12` had a pIC50 of 7.30.
Take `C=C(C)[C@@H]1CC[C@]2(C(=O)n3ccnc3)CC[C@]3(C)[C@H](CC[C@@H]4[C@@]5(C)C=C(OC(=O)n6ccnc6)C(=O)C(C)(C)[C@@H]5CC[C@]43C)[C@@H]12`: the negative logarithm of the IC50 (pIC50) in the data set on Leishmania infantum was 4.59.
As to `C=C(C)[C@@H]1CC[C@]2(C(=O)O)CC[C@]3(C)[C@H](CC[C@@H]4[C@@]5(C)CC[C@H](O)C(C)(C)[C@@H]5CC[C@]43C)[C@@H]12` [BETULINIC ACID], the negative logarithm of the IC50 (pIC50) was 5.87 to 6.48 in the data set with A2780; 4.27 in the data set with Ehrlich; 5.87 to 6.48 in the data set with 8505C; 5.87 to 6.48 with 518A2; 5.87 to 6.48 in the data set with MCF7; 4.39 in the data set on P815. In the data set on A549, this molecule had a pIC50 of 5.87 to 6.48.
Regarding `CCCCCCCCCCCCCCCCOP(=O)([O-])OCC[N+](C)(C)C` [MILTEFOSINE], in the data set on Leishmania infantum, the pIC50 was 5.22. The pEC50 in [4] is 6.48 to 8.00.
As for `CC1(C)CC[C@]2(C(=O)O)CC[C@]3(C)C(=CC[C@@H]4[C@@]5(C)CC[C@H](O)C(C)(C)[C@@H]5CC[C@]43C)[C@@H]2C1` [OLEANOLIC_ACID], in [4], the pEC50 is 6.48 to 8.00.
Consider `C[C@H]1[C@H](C)CC[C@]2(C(=O)O)CC[C@]3(C)C(=CC[C@@H]4[C@@]5(C)CC[C@H](O)C(C)(C)[C@@H]5CC[C@]43C)[C@H]12` [URSOLIC ACID], for which the pEC50 in [4] was 6.48 to 8.00.
In turn, `Cc1cn([C@H]2C[C@H](N=[N+]=[N-])[C@@H](CO)O2)c(=O)[nH]c1=O` [ZIDOVUDINE] showed a negative-log EC50 (pEC50) in [1] of 7.00.

By pEC50 is commonly meant −log10 of the EC50, conventionally taken in molar units. Read a low pEC50 as a high EC50. Broadly, the pIC50 is the IC50 on a negative log10 scale, so that one unit is a factor of ten.

The values above are taken from ChEMBL document CHEMBL4414578, “Design and synthesis of pentacyclic triterpene conjugates and their use in medicinal research” (Eur J Med Chem, 2019).
